In patent publication US20250268900A1, “COMBINATION THERAPY USING A SUBSTITUTED PYRIMIDIN-4(3H)-ONE AND NIVOLUMAB AS WELL AS ITS USE IN THE TREATMENT OF CANCER” (BRISTOL-MYERS SQUIBB COMPANY, priority 2022, published 2025):

What was measured:
CD8+ T cells = assay: CD8+ activation in PBMCs: CD107a+ cells as a percentage of total CD8+ T cells after CEFT peptide pool stimulation, flow cytometry; type: cell-based; details: PBMCs restimulated with CEFT peptide pool 24 hours, titration of Compound (10b) alone or with αPD-L1
Protocol: (§1) A study was performed to evaluate the effect of the SHP2 inhibitor Compound (10b) alone and in combination with αPD-L1 on T cell cytokine production and killing potential in response to antigenic stimulation. PBMCs from four healthy donors were stimulated with a CEFT peptide pool and treated with vehicle, isotype control, αPD-L1, a titration of Compound (10b), or a titration of Compound (10b) with the addition of either isotype control or αPD-L1. After the initial CEFT stimulation, the cultures were rested and cytokines were added to expand the number of responding CD8+ T cells. Cells were then restimulated with the CEFT peptide pool for 24 hours, and the frequency of CD107a+ cells as a percentage of total CD8+ T cells was assessed by flow cytometry. In addition, at 5 days post stimulation, the supernatents were harvested and the concentration of IFNγ was measured by TR-FRET. FIG. 1A-FIG. 1B show results from this study.

IFNγ = IFNγ concentration in PBMC supernatants 5 days post CEFT stimulation, TR-FRET; type: cell-based; details: 5 days after CEFT stimulation; data not shown
Protocol: as §1

CT-26 KRAS D12C KI tumor = details: CT-26 KRAS D12C KI bearing Balb/c mice, n = 10
Description: Animal Receipt and Housing. For the CT-26 CRISPR knock-in KRAS D12C study, protocols and procedures involving the care and use of animals were reviewed and approved by the Charles River Accelerator and Development Lab (CRADL) Institutional Animal Care and Use Committee (IACUC) prior to execution. The animal care and use program has been fully accredited by the Association for Assessment and Accreditation of Laboratory Animal Care International (AAALAC). Balb/c female mice (Envigo; Inotiv Inc.) were ordered, aged six to eight weeks at receipt, and identified by ear notch. Animals were acclimated for a period of eleven days prior to tumor inoculation. For the duration of the acclimation period and throughout the study, mice were group-housed up to five animals per cage in disposable polycarbonate IVC cages (Innovive; San Diego, CA) which consisted of a layer of Alpha-Dri bedding (Sheppard Specialty Papers, Inc., Kalamazoo, MI), a certified enrichment block and diamond-twist, and a certified polycarbonate housing device. Mice were presented with rodent diet pellet and irradiated reverse-osmosis Aquavive® drinking water (Innovive; San Diego, CA), ad libitum. The vivarium temperature was maintained between 20° C. through 26° C. and an environmental humidity between 30% through 70%. The interior room lighting was cycled twelve hours on and twelve hours off.
Tumor Cell Line Culture and Inoculation. […] Cells were screened and confirmed negative for mouse pathogens (IDEXX) and maintained in-vitro at 37° C., 5% CO2 atmosphere in 10% (v/v) fetal bovine serum (FBS, Invitrogen) and 90% (v/v) Roswell Park Memorial Institute (RPMI) 1640 Medium (Gibco) on T150 flasks. For implantation, cells were harvested with 0.25% Trypsin-EDTA (Gibco), washed in DPBS (Gibco), counted and viability determined with trypan blue exclusion using Vi-Cell XR (Beckman Coulter), then brought up in a 1:1 ratio of DPBS:Matrigel to a final concentration of 3×10^6 cells/mL. […]

## Cc1c(N2CCC3(CC2)CO[C@@H](C)[C@H]3N)nc(C)n(-c2cccc(Cl)c2Cl)c1=O (atropisomer, axis not shown; (Ra)) [Compound (10b), 6-((3S,4S)-4-amino-3-methyl-2-oxa-8-azaspiro[4.5]decan-8-yl)-3-(Ra)-(2,3-dichlorophenyl)-2,5-dimethyl-4(3H)-pyrimidinone]
CD8+ T cells; donor 1
  CD107a+CD8+ T cells (frequency of CD107a+ cells as a percentage of total CD8+ T cells): clear Compound (10b) dose-dependent effect
CD8+ T cells; donor 2
  CD107a+CD8+ T cells (frequency of CD107a+ cells as a percentage of total CD8+ T cells): dose dependent decrease
CD8+ T cells; donor 3
  CD107a+CD8+ T cells (frequency of CD107a+ cells as a percentage of total CD8+ T cells): some Compound (10b) effect
CD8+ T cells; donor 4
  CD107a+CD8+ T cells (frequency of CD107a+ cells as a percentage of total CD8+ T cells): no Compound (10b) effect
IFNγ
  IFNγ levels: inconsistent across donors
CT-26 KRAS D12C KI tumor; Formula (10b) 100 mg/kg PO QD×35, ANTIBODY A 10 mg/kg IP Q4D×4, endpoint tumor volume >1,500 mm^3
  Median Progression-Free to Tumor Burden Endpoint: 19 Study Day
CT-26 KRAS D12C KI tumor; Mantel-Haenszel hazard ratio vs ANTIBODY A alone, progression-free to tumor burden endpoint (tumor volume >1,500 mm^3)
  Hazard Ratio Treatment/ANTIBODY A (Group 2): 1.230
CT-26 KRAS D12C KI tumor; Mantel-Haenszel hazard ratio vs Vehicle Control + MOPC-21 Isotype, progression-free to tumor burden endpoint (tumor volume >1,500 mm^3)
  Hazard Ratio Treatment/Control (Group 1): 0.261
